Results: ChEMBL document CHEMBL3632579, “Hybrids from 4-anilinoquinazoline and hydroxamic acid as dual inhibitors of vascular endothelial growth factor receptor-2 and histone deacetylase” (Bioorg Med Chem Lett, 2015)

Assays:
[1] = molecular target: Vascular endothelial growth factor receptor 2 (Homo sapiens, UniProt P35968); test: Inhibition VEGFR2 (unknown origin) for 30 mins by ELISA
Histone deacetylase = test: Inhibition of human HDAC in HeLa cell nuclear extract by fluorometric assay using Fluor de Lys substrate; format: protein assay
MCF7 = test: Antiproliferative activity against human MCF7 cells after 48 hrs by MTT assay; format: functional, cell-based; conditions: MCF7, 48 h
Histone deacetylase 2 = Histone deacetylase 2 (Homo sapiens, UniProt Q92769); test: Inhibition of human recombinant HDAC2 by fluorometric assay using Fluor de Lys substrate
[2] = molecular target: T1, Protein deacetylase HDAC6 (Homo sapiens, UniProt Q9UBN7); test: Inhibition of human recombinant HDAC6 by fluorometric assay using Fluor de Lys substrate
T1 sequence (Q9UBN7 whole entry): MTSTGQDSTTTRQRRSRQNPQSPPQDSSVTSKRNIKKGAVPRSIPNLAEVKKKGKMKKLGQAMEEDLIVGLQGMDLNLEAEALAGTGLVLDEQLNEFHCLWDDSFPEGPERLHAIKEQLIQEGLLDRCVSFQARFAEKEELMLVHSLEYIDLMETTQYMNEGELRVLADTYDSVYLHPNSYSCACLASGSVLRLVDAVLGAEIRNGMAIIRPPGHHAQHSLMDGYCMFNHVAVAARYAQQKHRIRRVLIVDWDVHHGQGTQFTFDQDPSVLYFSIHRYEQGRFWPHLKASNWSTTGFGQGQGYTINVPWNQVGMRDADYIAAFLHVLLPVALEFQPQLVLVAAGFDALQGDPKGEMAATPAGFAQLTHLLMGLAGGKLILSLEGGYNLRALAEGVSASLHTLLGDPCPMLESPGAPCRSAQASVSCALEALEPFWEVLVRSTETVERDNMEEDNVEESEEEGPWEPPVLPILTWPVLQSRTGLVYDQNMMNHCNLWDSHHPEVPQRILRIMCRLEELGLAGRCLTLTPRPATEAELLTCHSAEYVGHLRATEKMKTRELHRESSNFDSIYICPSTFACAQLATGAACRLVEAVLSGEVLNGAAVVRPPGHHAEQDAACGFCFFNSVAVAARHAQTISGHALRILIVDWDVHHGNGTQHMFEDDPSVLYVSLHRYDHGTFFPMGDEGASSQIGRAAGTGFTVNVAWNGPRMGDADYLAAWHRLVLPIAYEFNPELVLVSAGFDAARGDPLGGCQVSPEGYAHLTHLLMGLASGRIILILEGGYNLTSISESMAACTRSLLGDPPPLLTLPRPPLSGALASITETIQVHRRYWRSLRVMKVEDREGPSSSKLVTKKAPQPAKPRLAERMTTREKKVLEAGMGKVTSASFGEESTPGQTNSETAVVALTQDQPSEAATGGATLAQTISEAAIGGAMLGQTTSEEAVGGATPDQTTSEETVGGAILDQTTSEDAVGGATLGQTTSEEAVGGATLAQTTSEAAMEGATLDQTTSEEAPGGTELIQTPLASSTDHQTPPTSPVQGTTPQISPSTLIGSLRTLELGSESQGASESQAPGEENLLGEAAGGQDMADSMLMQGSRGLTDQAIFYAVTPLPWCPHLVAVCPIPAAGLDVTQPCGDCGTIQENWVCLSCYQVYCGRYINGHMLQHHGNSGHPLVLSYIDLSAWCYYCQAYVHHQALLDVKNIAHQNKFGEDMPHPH

A549 = test: Antiproliferative activity against human A549 cells after 48 hrs by MTT assay; format: functional, cell-based; conditions: A549, 48 h
HepG2 = test: Antiproliferative activity against human HepG2 cells after 48 hrs by MTT assay; format: functional, cell-based; conditions: HepG2, 48 h
Histone deacetylase 1 = Histone deacetylase 1 (Homo sapiens, UniProt Q13547); test: Inhibition of human recombinant HDAC1 by fluorometric assay using Fluor de Lys substrate
HCT-116 = test: Antiproliferative activity against human HCT116 cells after 48 hrs by MTT assay; format: functional, cell-based; conditions: HCT-116, 48 h
Histone deacetylase 8 = molecular target: T2, Histone deacetylase 8 (Homo sapiens, UniProt Q9BY41); test: Inhibition of human recombinant HDAC8 by fluorometric assay using Fluor de Lys substrate
T2 sequence (Q9BY41 whole entry): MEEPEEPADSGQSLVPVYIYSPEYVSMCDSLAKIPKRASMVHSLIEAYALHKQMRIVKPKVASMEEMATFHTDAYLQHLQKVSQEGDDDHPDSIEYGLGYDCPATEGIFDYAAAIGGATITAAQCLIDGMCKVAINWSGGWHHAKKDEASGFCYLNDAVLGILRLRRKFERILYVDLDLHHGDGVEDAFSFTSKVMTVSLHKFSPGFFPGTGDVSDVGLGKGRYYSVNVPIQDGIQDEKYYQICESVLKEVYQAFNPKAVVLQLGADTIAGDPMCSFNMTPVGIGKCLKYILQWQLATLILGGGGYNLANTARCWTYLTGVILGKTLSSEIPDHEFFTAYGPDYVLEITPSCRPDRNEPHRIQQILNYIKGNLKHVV

Vascular endothelial growth factor receptor 2, sequence (P35968 whole entry): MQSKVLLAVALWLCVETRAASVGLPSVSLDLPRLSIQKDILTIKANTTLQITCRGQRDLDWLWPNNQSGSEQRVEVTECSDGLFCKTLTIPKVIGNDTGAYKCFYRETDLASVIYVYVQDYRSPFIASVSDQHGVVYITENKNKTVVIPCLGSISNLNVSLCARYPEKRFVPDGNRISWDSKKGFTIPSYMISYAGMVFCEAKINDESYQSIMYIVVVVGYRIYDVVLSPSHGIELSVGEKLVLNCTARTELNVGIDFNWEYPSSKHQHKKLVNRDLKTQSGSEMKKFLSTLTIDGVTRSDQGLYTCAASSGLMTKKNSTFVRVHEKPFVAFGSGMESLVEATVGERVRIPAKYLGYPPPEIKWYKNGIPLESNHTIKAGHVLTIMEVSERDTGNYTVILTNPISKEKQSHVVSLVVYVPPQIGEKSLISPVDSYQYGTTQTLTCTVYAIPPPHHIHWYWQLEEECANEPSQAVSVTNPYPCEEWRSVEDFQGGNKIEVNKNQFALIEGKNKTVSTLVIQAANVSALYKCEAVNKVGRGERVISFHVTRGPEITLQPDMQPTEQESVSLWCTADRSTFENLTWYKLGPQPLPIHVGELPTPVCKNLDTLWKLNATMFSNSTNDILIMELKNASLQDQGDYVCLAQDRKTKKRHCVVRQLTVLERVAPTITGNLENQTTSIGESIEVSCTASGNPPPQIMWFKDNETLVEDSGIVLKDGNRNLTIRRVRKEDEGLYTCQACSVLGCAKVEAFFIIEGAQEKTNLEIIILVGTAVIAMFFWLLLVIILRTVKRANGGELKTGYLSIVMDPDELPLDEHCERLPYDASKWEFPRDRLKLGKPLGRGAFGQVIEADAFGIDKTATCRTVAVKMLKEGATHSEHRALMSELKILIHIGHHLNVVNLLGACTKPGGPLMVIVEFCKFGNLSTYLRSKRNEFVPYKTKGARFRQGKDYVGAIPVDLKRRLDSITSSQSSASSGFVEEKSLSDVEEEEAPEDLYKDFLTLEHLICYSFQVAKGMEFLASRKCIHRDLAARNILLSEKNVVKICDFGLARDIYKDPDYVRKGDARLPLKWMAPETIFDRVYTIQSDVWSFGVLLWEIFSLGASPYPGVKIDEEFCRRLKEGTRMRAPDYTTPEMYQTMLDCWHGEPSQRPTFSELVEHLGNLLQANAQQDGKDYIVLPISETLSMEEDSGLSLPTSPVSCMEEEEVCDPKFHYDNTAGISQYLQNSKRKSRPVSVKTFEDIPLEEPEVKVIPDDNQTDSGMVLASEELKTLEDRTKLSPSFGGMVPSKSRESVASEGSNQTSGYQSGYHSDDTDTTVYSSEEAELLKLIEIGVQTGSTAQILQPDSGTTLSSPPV
Histone deacetylase 1, sequence (Q13547 whole entry): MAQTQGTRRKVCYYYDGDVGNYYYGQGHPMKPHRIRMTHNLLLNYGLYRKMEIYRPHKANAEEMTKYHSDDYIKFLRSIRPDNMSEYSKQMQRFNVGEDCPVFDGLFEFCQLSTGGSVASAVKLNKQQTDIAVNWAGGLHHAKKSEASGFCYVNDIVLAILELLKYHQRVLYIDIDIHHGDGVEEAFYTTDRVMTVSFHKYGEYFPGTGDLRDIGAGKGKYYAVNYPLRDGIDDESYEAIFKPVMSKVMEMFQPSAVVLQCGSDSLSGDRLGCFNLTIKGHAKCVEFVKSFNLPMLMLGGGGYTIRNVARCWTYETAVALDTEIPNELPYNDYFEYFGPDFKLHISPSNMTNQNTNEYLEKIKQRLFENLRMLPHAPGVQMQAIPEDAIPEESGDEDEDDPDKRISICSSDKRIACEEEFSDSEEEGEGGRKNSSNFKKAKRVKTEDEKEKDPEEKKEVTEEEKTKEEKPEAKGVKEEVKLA
Histone deacetylase 2, sequence (Q92769 whole entry): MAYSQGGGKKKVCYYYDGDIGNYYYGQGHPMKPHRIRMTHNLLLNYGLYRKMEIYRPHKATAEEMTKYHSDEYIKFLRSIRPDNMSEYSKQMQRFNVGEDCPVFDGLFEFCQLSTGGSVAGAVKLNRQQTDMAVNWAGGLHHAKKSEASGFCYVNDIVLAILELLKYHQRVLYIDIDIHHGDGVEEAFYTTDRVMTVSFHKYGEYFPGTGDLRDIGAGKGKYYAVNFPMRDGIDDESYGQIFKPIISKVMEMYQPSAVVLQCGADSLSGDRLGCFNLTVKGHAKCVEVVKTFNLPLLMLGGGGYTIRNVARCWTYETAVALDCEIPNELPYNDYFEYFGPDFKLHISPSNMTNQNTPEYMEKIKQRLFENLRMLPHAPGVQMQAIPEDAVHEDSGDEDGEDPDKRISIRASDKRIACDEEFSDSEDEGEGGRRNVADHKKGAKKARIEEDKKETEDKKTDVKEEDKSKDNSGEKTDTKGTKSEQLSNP

Row | Structure (SMILES) | IC50 [1] [nM] | IC50 (Histone deacetylase) [nM] | IC50 (MCF7) [nM] | further results
1 | COc1cc2ncnc(Nc3cccc(Cl)c3)c2cc1OCCC(=O)NO | 476 | 645 | > 100000 | –
2 | COc1cc2ncnc(Nc3cccc(Cl)c3)c2cc1OCCCC(=O)NO | 352 | 121 | 65200 | –
3 | COc1cc2ncnc(Nc3cccc(Cl)c3)c2cc1OCCCCC(=O)NO | 613 | 17 | 8600 | –
4 | COc1cc2ncnc(Nc3cccc(Cl)c3)c2cc1OCCCCCC(=O)NO | 501 | 5.4 | 3200 | –
5 | COc1cc2ncnc(Nc3cccc(Br)c3)c2cc1OCCC(=O)NO | 625 | 531 | > 100000 | –
6 | COc1cc2ncnc(Nc3cccc(Br)c3)c2cc1OCCCC(=O)NO | 434 | 97 | 68400 | –
7 | COc1cc2ncnc(Nc3cccc(Br)c3)c2cc1OCCCCC(=O)NO | 415 | 15 | 8500 | –
8 | COc1cc2ncnc(Nc3cccc(Br)c3)c2cc1OCCCCCC(=O)NO | 462 | 4.5 | 2800 | –
9 | COc1cc2ncnc(Nc3ccc(Cl)cc3Cl)c2cc1OCCC(=O)NO | 370 | 215 | 95000 | –
10 | COc1cc2ncnc(Nc3ccc(Cl)cc3Cl)c2cc1OCCCC(=O)NO | 138 | 86 | 56800 | –
11 | COc1cc2ncnc(Nc3ccc(Cl)cc3Cl)c2cc1OCCCCC(=O)NO | 115 | 14 | 6400 | –
12 | COc1cc2ncnc(Nc3ccc(Cl)cc3Cl)c2cc1OCCCCCC(=O)NO | 84 | 2.8 | 1200 | IC50 (Histone deacetylase 2): 6.8 nM; IC50 [2]: 25.5 nM; IC50 (A549): 5400 nM; IC50 (HepG2): 2700 nM; IC50 (Histone deacetylase 1): 3.5 nM; IC50 (HCT-116): 1800 nM; IC50 (Histone deacetylase 8): 5.2 nM
13 | COc1cc2ncnc(Nc3cc(Cl)ccc3Cl)c2cc1OCCC(=O)NO | 1260 | 348 | > 100000 | –
14 | COc1cc2ncnc(Nc3cc(Cl)ccc3Cl)c2cc1OCCCC(=O)NO | 2140 | 57 | 44500 | –
15 | COc1cc2ncnc(Nc3cc(Cl)ccc3Cl)c2cc1OCCCCC(=O)NO | 5200 | 21 | 13700 | –
16 | COc1cc2ncnc(Nc3cc(Cl)ccc3Cl)c2cc1OCCCCCC(=O)NO | 2450 | 8.4 | 4000 | –
17 | COc1cc2/c(=N/c3ccc(Br)cc3F)nc[nH]c2cc1OCC1CCN(C)CC1 [VANDETANIB] | – | > 10000 | 18500 | –
18 | O=C(CCCCCCC(=O)Nc1ccccc1)NO [VORINOSTAT] | > 10000 | – | – | –
